Results as given in PMC8770593 (Nature Communications, 2022).
Positions count from the first letter of the chain named. Values joined by “and” are separate entries in the source; they are usually repeats but may differ in a detail not shown here. Equal values may be shown once. Read-outs that look alike come from different tables or passages of the source.

Legend:
[1] = system: α1BAR expressed in mammalian cells; settings: ref Docherty, J. R., Eur. J. Pharmacol. 855, 305-320 (2019), cited from earlier work; for Kd: α1BAR expressed in mammalian cells
[2] = system: α1BAR expressed in E. coli; set-up: method as in ref Schuster, M. et al., Biochim. Biophys. Acta Biomembr. 1862, 183354 (2020); settings: ref Schuster, M. et al., Biochim. Biophys. Acta Biomembr. 1862, 183354 (2020), read-out: affinity; cited from earlier work
[3] = biological target: T1, α1BAR I116^3.23→T (Homo sapiens, UniProt P35368, I116T); test: Agonist-induced IP1 accumulation (Gq signaling, HTRF IP-One) in transfected HEK293T/17 cells; format: cell-based
T1 construct: harboring the wild-type helix 8 and the full-length C-terminus as well as the entire ICL3; expressed in transfected cells; host or cells: HEK293T/17
T1 sequence (P35368 whole entry I116T): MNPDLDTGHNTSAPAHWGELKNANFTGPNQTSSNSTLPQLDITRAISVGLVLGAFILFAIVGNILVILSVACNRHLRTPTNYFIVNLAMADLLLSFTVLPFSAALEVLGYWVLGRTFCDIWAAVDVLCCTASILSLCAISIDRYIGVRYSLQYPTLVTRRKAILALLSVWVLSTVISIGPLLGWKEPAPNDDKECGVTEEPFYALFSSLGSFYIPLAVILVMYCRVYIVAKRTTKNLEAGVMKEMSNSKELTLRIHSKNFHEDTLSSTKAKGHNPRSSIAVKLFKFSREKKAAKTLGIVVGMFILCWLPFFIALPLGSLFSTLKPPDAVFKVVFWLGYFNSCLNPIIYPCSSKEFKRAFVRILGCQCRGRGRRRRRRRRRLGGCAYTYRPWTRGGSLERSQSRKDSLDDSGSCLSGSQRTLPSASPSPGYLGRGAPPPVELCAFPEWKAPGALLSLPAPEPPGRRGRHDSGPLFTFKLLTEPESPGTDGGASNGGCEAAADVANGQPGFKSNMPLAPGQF
Protocol: (§1) Signaling assays were performed with receptor constructs harboring the wild-type helix 8 and the full-length C-terminus as well as the entire ICL3. Agonist-induced IP1 accumulation was measured in transiently transfected HEK293T/17 cells, as described before. […] IP1 accumulation was measured using the HTRF IP-One kit (Cisbio) according to the manufacturer’s protocol on a SPARK fluorescence plate reader (Tecan).

[4] = biological target: T2, α1BAR S168^4.48→C (Homo sapiens, UniProt P35368, S168C); test: as above; format: cell-based; settings: for IP1 concentration: S168C, listed as PE
T2 construct: harboring the wild-type helix 8 and the full-length C-terminus as well as the entire ICL3; expressed in transfected cells; host or cells: HEK293T/17
T2 sequence (P35368 1-520 S168C): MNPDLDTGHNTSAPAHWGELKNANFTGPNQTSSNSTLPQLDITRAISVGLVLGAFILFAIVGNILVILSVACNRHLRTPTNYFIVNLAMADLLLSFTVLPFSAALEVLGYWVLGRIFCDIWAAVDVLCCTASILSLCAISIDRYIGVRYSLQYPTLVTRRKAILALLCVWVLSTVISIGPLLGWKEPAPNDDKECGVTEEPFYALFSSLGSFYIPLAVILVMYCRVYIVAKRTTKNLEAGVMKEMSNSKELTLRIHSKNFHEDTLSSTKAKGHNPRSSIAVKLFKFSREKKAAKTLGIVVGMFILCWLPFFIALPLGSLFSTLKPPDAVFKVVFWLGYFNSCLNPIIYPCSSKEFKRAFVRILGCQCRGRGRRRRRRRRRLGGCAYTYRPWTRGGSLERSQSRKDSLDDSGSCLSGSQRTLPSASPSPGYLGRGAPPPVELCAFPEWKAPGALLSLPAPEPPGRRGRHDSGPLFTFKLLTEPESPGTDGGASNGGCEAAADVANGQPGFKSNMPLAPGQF
Protocol: as §1

[5] = biological target: T3, wild-type α1BAR (Homo sapiens, UniProt P35368); test: as above; format: cell-based; settings: reference construct
T3 construct: harboring the wild-type helix 8 and the full-length C-terminus as well as the entire ICL3; expressed in transfected cells; host or cells: HEK293T/17
T3 sequence (P35368 whole entry): as the sequence (P35368 whole entry I116T) above, with T116I counted along it
Protocol: as §1

[6] = biological target: T4, α1BAR V124^3.31→M (Homo sapiens, UniProt P35368, V124M); test: as above; format: cell-based
T4 construct: harboring the wild-type helix 8 and the full-length C-terminus as well as the entire ICL3; expressed in transfected cells; host or cells: HEK293T/17
T4 sequence (P35368 whole entry V124M): as the sequence (P35368 whole entry I116T) above, with T116I, V124M counted along it
Protocol: as §1

[7] = biological target: T5, α1BAR D191^ECL2→Y (Homo sapiens, UniProt P35368, D191Y); test: as above; format: cell-based; settings: for IP1 concentration: D191Y, listed as PE
T5 construct: harboring the wild-type helix 8 and the full-length C-terminus as well as the entire ICL3; expressed in transfected cells; host or cells: HEK293T/17
T5 sequence (P35368 1-520 D191Y): T2 sequence (P35368 1-520 S168C) with C168S, D191Y
Protocol: as §1

[8] = biological target: T6, α1BAR V333^7.38→L (Homo sapiens, UniProt P35368, V333L); test: as above; format: cell-based
T6 construct: harboring the wild-type helix 8 and the full-length C-terminus as well as the entire ICL3; expressed in transfected cells; host or cells: HEK293T/17
T6 sequence (P35368 whole entry V333L): as the sequence (P35368 whole entry I116T) above, with T116I, V333L counted along it
Protocol: as §1

[9] = biological target: T7, α1BAR T295^6.36→M (Homo sapiens, UniProt P35368, T295M); test: as above; format: cell-based
T7 construct: harboring the wild-type helix 8 and the full-length C-terminus as well as the entire ICL3; expressed in transfected cells; host or cells: HEK293T/17
T7 sequence (P35368 whole entry T295M): as the sequence (P35368 whole entry I116T) above, with T116I, T295M counted along it
Protocol: as §1

[10] = biological target: T8, α1BAR P349^7.54→L (Homo sapiens, UniProt P35368, P349L); test: as above; format: cell-based
T8 construct: receptor constructs harboring the wild-type helix 8 and the full-length C-terminus as well as the entire ICL3; expressed in transfected cells; host or cells: HEK293T/17
T8 sequence (P35368 whole entry P349L): as the sequence (P35368 whole entry I116T) above, with T116I, P349L counted along it
Protocol: as §1

[11] = biological target: T9, α1BAR S95^2.54→C (Homo sapiens, UniProt P35368, S95C); test: as above; format: cell-based; settings: for IP1 concentration: S95C, listed as PE
T9 construct: harboring the wild-type helix 8 and the full-length C-terminus as well as the entire ICL3; expressed in transfected cells; host or cells: HEK293T/17
T9 sequence (P35368 1-520 S95C): T2 sequence (P35368 1-520 S168C) with S95C, C168S
Protocol: as §1

[12] = biological target: T10, α1BAR E194^ECL2→V (Homo sapiens, UniProt P35368, E194V); test: as above; format: cell-based
T10 construct: harboring the wild-type helix 8 and the full-length C-terminus as well as the entire ICL3; expressed in transfected cells; host or cells: HEK293T/17
T10 sequence (P35368 whole entry E194V): as the sequence (P35368 whole entry I116T) above, with T116I, E194V counted along it
Protocol: as §1

[13] = biological target: T11, α1BAR G183^4.63→V (Homo sapiens, UniProt P35368, G183V); test: as above; format: cell-based
T11 construct: harboring the wild-type helix 8 and the full-length C-terminus as well as the entire ICL3; expressed in transfected cells; host or cells: HEK293T/17
T11 sequence (P35368 whole entry G183V): as the sequence (P35368 whole entry I116T) above, with T116I, G183V counted along it
Protocol: (§2) Signaling assays were performed with receptor constructs harboring the wild-type helix 8 and the full-length C-terminus as well as the entire ICL3. Agonist-induced IP1 accumulation was measured in transiently transfected HEK293T/17 cells, as described before. Twenty-four hours after transfection, cells were washed with phosphate-buffered saline (PBS), detached with trypsin-EDTA (Sigma), and resuspended in assay buffer (10 mM HEPES pH 7.4, 1 mM CaCl2, 0.5 mM MgCl2, 4.2 mM KCl, 146 mM NaCl, 50 mM LiCl, 5.5 mM glucose, 0.1% (w/v) BSA). […] IP1 accumulation was measured using the HTRF IP-One kit (Cisbio) according to the manufacturer’s protocol on a SPARK fluorescence plate reader (Tecan).

[14] = biological target: T12, α1BAR S150^34.50→Y (Homo sapiens, UniProt P35368, S150Y); test: as above; format: cell-based
T12 construct: harboring the wild-type helix 8 and the full-length C-terminus as well as the entire ICL3; expressed in transfected cells; host or cells: HEK293T/17
T12 sequence (P35368 whole entry S150Y): as the sequence (P35368 whole entry I116T) above, with T116I, S150Y counted along it
Protocol: as §2

[15] = system: stabilized α1BAR mutant with L334 and L334F back-mutant; settings: saturation binding, whole E. coli cells, L334 vs L334F back-mutant

**Q.** What does the source list for COc1cc2nc(N3CCN(C(=O)c4ccco4)CC3)nc(N)c2cc1OC [prazosin]?
**A.** affinity as pK value (RLBA) ([1]; radioligand binding): 9.26–10.3; Kd ([1]; read-out: affinity range reported in the literature): 0.05 to 0.55 nM; Kd ([1]; read-out: mean affinity reported in the literature): 0.11 nM; Kd [2]: 0.074 nM

**Q.** With CNC[C@H](O)c1cccc(O)c1 [Phenylephrine] as the compound, how does the Emax [3] read?
**A.** 71.2 ± 6.4%

**Q.** What about the Emax ([4]; HEK293T/17, IP1 accumulation) of the same compound?
**A.** 96.8 ± 8%

**Q.** And the IP1 concentration ([4]; [PE] -4 log M)?
**A.** 678.88 and 634.809 and 694.6 and 789.857 and 654.693 and 717.983

**Q.** What about the IP1 concentration ([4]; [PE] -4.69897 log M) of the same compound?
**A.** 546.031 and 536.624 and 592.13 and 637.69 and 619.808 and 699.597

**Q.** And the IP1 concentration ([4]; [PE] -5.39794 log M)?
**A.** 630.294 and 403.102 and 536.003 and 572.191 and 548.559 and 641.7

**Q.** What about the IP1 concentration ([4]; [PE] -6.09691 log M) of the same compound?
**A.** 373.984 and 293.041 and 368.158 and 357.195 and 468.9 and 570.413

**Q.** What about the IP1 concentration ([4]; [PE] -6.79588 log M) of the same compound?
**A.** 213.187 and 230.01 and 327.882 and 336.101 and 329.963 and 356.634

**Q.** What about the Emax [5] of the same compound?
**A.** 100%

**Q.** What about the Emax [6] of the same compound?
**A.** 84.2 ± 6.3%

**Q.** What about the IP1 concentration ([7]; [PE] -4 log M) of the same compound?
**A.** 519.698 and 441.949 and 662.352 and 730.409 and 630.141 and 710.683

**Q.** And the IP1 concentration ([7]; [PE] -4.69897 log M)?
**A.** 370.913 and 393.347 and 353.075 and 528.612 and 529.351 and 631.077

**Q.** And the IP1 concentration ([7]; [PE] -5.39794 log M)?
**A.** 322.315 and 263.99 and 343.654 and 369.218 and 447.164 and 499.2

**Q.** What about the Emax ([7]; HEK293T/17, IP1 accumulation) of the same compound?
**A.** 89.6 ± 4.7%

**Q.** And the Emax [8]?
**A.** 79.8 ± 5.2%

**Q.** What about the Emax [9] of the same compound?
**A.** 50.7 ± 5.9%

**Q.** What about the Emax [10] of the same compound?
**A.** 27.3 ± 4.1%

**Q.** And the Emax ([11]; HEK293T/17, IP1 accumulation)?
**A.** 71.9 ± 5.7%

**Q.** What about the IP1 concentration ([11]; [PE] -4 log M) of the same compound?
**A.** 377.435 and 437.765 and 593.664 and 690.124 and 481.642 and 456.558

**Q.** And the IP1 concentration ([11]; [PE] -4.69897 log M)?
**A.** 323.191 and 422.658 and 500.281 and 586.924 and 403.917 and 432.8

**Q.** What about the IP1 concentration ([11]; [PE] -5.39794 log M) of the same compound?
**A.** 269.373 and 257.6 and 377.64 and 428.644 and 333.33 and 361.512

**Q.** What about the IP1 concentration ([12]; E194V, [PE] -4 log M, listed as PE) of the same compound?
**A.** 499.282 and 565.119 and 803.974 and 817.17 and 667.593 and 781.933

**Q.** What about the Emax ([12]; HEK293T/17, IP1 accumulation) of the same compound?
**A.** 85.4 ± 7.4%

**Q.** What about the Emax [13] of the same compound?
**A.** 9 ± 18.5%

**Q.** What about the Emax [14] of the same compound?
**A.** 13.4 ± 1.7%

**Q.** For COc1cc2nc(N3CCN(C(=O)c4ccco4)CC3)nc(N)c2cc1OC [3H-prazosin], which “impact of the L334/F334 mutation on affinity” value [15] is on record?
**A.** only a minor impact
